From paper PMC12866179, “Oxidized MIF is an Alzheimer’s disease drug target relaying external risk factors to tau pathology” (Cell Reports Medicine, 2025)
Where two headings read alike, the source gives them in different places.

Assays:
in vitro = in vitro ADME
MTT assay, Vero cells = type: cell-based; settings: for CC50 at 24 h: African green monkey
Description: For viability analysis 4x10^4 Vero or 8x10^4 SH-SY5Y-tau-P301S cells were plated in a 96-well plate and incubated at 37°C overnight. Then the compounds diluted in DMSO were added to the cells. The final concentration of DMSO was 1%. The cells were then incubated for 24h (Vero) or 48h (SH-SY5Y). Afterward 20 μL of a Thiazolyl Blue Tetrazolium Bromide (MTT, Sigma) solution (5 mg/mL in PBS) was added to the cells and incubated for 4h allowing viable cells to reduce the yellow MTT into blue formazan metabolites. Following aspiration of the medium, the formazan was resuspended in 200 μL isopropanol/40 mM HCl and incubated for 30 min at RT. The diluted formazan was spectrometrically analyzed using a Tecan Safire Spectrometer at 560 nm and background at 670 nm was subtracted.

CUTA = target: T1, CUTA (Homo sapiens, UniProt O60888); assay: Drug resin affinity chromatography (DRAC), CUTA; type: binding; settings: SH-SY5Y-tau-P301S lysates
T1 construct: endogenous in cells; host or cells: SH-SY5Y-tau-P301S cell lysate
T1 sequence (O60888 33-179): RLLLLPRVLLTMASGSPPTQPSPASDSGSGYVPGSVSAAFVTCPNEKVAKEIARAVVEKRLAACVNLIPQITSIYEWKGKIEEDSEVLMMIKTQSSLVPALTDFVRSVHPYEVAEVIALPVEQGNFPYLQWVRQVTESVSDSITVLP
Description: (§1) For drug resin affinity chromatography (DRAC), supernatant of cell lysates or brain extracts were supplemented with 1 mM of ribonucleoside triphosphates (ATP, GTP, CTP, UTP; NEB), 10 mM creatine phosphate (Sigma) and 10 μL/mL of a 5 mg/mL stock solution of creatine kinase (Sigma). The samples were then loaded onto 20 μL of compound-coupled resin that were equilibrated with PBB-buffer (plus supplements). After one hour of incubation at 26°C, the beads were washed with PBB (100x bed volume). Bound proteins were then eluted either with 200 μM PAV-645 (pig brain) or 100 μM free compound (human brain samples; cell lysates) in the same buffer used as competitor solution or for stripping 1% SDS or 8M urea (cell lysates) for 1h. All elutions were kept frozen until further analysis.

pox viruses = settings: cited from earlier work
tau phosphorylation = assay: Tau assay (immunoblot of phospho-tau) in SH-SY5Y-tau-P301S cells; type: cell-based, human; settings: for tau phosphorylation at Ser202 and Thr205 (AT8): absence of virus, ISO-1 up to 100 μM; for effect on tau phosphorylation (AT8) in MIF-knockdown cells: SH-SY5Y-tau-P301S-MIF-knockdown cells; for potency relative to PAV-802 in inhibiting tau phosphorylation: in vitro assay
Description: For the analysis of compound effects on tau phosphorylation 4x10^5 SH-SY5Y tau-P301S cells were seeded on 24-well plates. At the next day the cells were treated with compounds diluted in DMSO. Final concentration of DMSO was 0.2%. After an incubation at 37°C for 48h the cells were washed twice with PBS and then lysed in PBS/1% NP40 (Applichem) including the cOmplete protease inhibitor cocktail 2 (Roche) and phosphatase inhibitor cocktail (Sigma). The protein concentration of the samples was determined with the DC Protein Assay (Bio-Rad).
After the protein concentration of cell lysates and homogenates had been determined using the DC Protein Assay Kit (Bio-Rad), 20 μg of each sample were dissolved in NuPAGE LDS Sample buffer (including 2% β-mercaptoethanol), boiled at 100°C for 5 min and then separated on NuPAGE Novex 4–12% Bis-Tris midi gels (Invitrogen) using NuPAGE MES SDS Running buffer (Invitrogen). Proteins were then transferred to a 0.2 μm nitrocellulose membrane (Amersham) in 24 mM Tris/192 mM glycine/20% MeOH at 400 mA for 2h using a tank blot system (Bio-Rad). In order to detect any blotting artifacts, the proteins on the membranes were visualized with Ponceau S (Sigma). The membranes were destained with PBS and then blocked with PBS/5% nonfat milk (Oxoid) for 1h at RT. Incubations with primary antibodies (diluted 1:1,000) in PBS-T were carried out overnight at 4°C. Then the membranes were washed three times with PBS-T for 10 min and afterward incubated with fluorescent secondary antibodies (IR Dye 680 or 800: Li-COR Biosciences.) diluted 1:20,000 in PBS-T for 1h at RT. Following three washing steps with PBS-T for 10 min each, the membranes were scanned using an LI-COR Odyssey CLX. Signal intensities were calculated using the Image Studio Version 2.1 software (LI-COR Biosciences). Blots were reused for staining with additional primary antibodies following the same procedure.

HSV-1 = assay: In-cell ELISA for antiviral (HSV-1) activity in Vero cells; type: cell-based, HSV-1 KOS strain; settings: for IC50: Human alphaherpesvirus 1, Vero; for potency relative to PAV-802 in inhibiting HSV-1 replication: in vitro assay
Description: Antiviral activity of the compounds was measured by in-cell ELISA that was adapted from Fabiani et al.[90] […] In parallel cells were infected with serial dilutions of HSV-1 to generate a standard curve. […] Following blocking with 5% BSA in PBS/0.05% Tween 20 (Sigma, PBS-T) for 60 min the cells were incubated with 50 μL of anti-HSV-1-gC antibody (abcam) diluted 1 to 10,000 in PBS-T over night at 4°C. The following day, cells were washed four times with PBS-T and then incubated with Hrp-conjugated goat anti-mouse antibody (Thermo Fisher Scientific) at a dilution of 1:10,000 in PBS-T for 60 min. Then, cells were washed four times with PBS-T before adding 50 μL of the substrate cocktail (OptEIA, BD). The reaction was stopped after 30 min by adding 50 μL of 2N H2SO4 and signals were spectrometrically analyzed using a Tecan Safire at 450 nm.

MIF = target: T2, MIF (Homo sapiens, UniProt P14174); assay: Drug resin affinity chromatography (DRAC), MIF; type: binding; settings: SH-SY5Y-tau-P301S lysates
T2 construct: endogenous in cells; host or cells: SH-SY5Y-tau-P301S cell lysate
T2 sequence (P14174 2-115): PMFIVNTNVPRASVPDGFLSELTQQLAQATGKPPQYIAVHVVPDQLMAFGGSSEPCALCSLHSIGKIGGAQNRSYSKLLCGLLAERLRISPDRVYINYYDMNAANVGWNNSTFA
Description: as §1

Structure (SMILES): [I-].c1cc2nc3ccc(N4CCCC4)cc3[s+]c2cc1N1CCCC1 [PAV-617, 3,7-Di(pyrrolidine-1-yl)phenothiazine-5-ium iodide]
- fraction unbound (in vitro): 0.088
- CC50 (MTT assay, Vero cells; CC50 (µM)): 20.1 µM
- elution of CUTA from PAV-617 resins by free compound (CUTA): eluted
- antiviral effects on pox viruses (pox viruses): antiviral effects
- tau phosphorylation at Ser202 and Thr205 (AT8) (tau phosphorylation; SH-SY5Y-tau-P301S cells): reduced tau phosphorylati on ly in control
- effect on tau phosphorylation (AT8) in MIF-knockdown cells (tau phosphorylation): bu t no t in MIF-knockdown
- potency relative to PAV-802 in inhibiting tau phosphorylation (tau phosphorylation): retained that enhanced activity
- IC50 (HSV-1): 220 nM
- potency relative to PAV-802 in inhibiting HSV-1 replication (HSV-1): retained that enhanced activity
- elution of MIF from PAV-617 resins by free compound (MIF): eluted

Structure (SMILES): CCc1cc(N2CCCC2)cc2[s+]c3cc(N4CCCC4)cc(C)c3nc12.[I-] [PAV-174, 3,7-Di(pyrrolidine-1-yl) 1-ethyl-9-methyl-phenothiazin-5-ium iodide]
- fraction unbound (in vitro): 0.001
- CC50 at 24 h (MTT assay, Vero cells; CC50 (µM)): 1.2 µM
- CC50 at 24 h (MTT assay, Vero cells; CC50, MTT assay in Vero): 1.12 µM
- CC50 (MTT assay, Vero cells; CC50 (µM)): 1.16 µM
- elution of CUTA from PAV-617 resins by free compound (CUTA): eluted
- antiviral effects on pox viruses (pox viruses): antiviral effects
- tau phosphorylation at Thr181 (AT270) (tau phosphorylation; SH-SY5Y-tau-P301S cells): only at higher concentrations
- tau phosphorylation at Thr231 (AT180) (tau phosphorylation; SH-SY5Y-tau-P301S cells): dose-dependent reduction
- HSV-1-induced increase of tau phosphorylation (AT8) (tau phosphorylation; SH-SY5Y-tau-P301S cells infected with HSV-1): absent
- tau phosphorylation at Ser202 and Thr205 (AT8) (tau phosphorylation; SH-SY5Y-tau-P301S cells): reduced tau phosphorylation
- effect on tau phosphorylation (AT8) in MIF-knockdown cells (tau phosphorylation): absent
- potency relative to PAV-802 in inhibiting tau phosphorylation (tau phosphorylation): around 2 logs
- IC50 (HSV-1): 20 nM
- IC50 (HSV-1; read-out: IC50, HSV-1 replication, in-cell ELISA): 21 nM
- potency relative to PAV-802 in inhibiting HSV-1 replication (HSV-1): around 2 logs
- elution of MIF from PAV-617 resins by free compound (MIF): eluted
